The source of these data is PubChem BioAssay AID330 (DTP/NCI, 2004).

In this test the test system is P388 leukemia ip, CD2F1 mice, survival T/C. Briefly: NCI In Vivo Anticancer Drug Screen. Data for tumor model P388 Leukemia (intraperitoneal) in CD2F1 (CDF1) mice. Particulars: endpoint: median survival time, higher = longer survival. A digest of the protocol:
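Mice carrying the transplanted tumor received test compound or vehicle. Survival was recorded in each group, and the value is the treated-group measurement divided by that of the vehicle-treated control group.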

Setting [1] is: dose: 50.0 mg/kg/injection, schedule: Q01DX005 (ip), vehicle: Klucel (hydroxypropylcellulose) (HPC).
Setting [2] is: dose: 100.0 mg/kg/injection, schedule: Q01DX005 (ip), vehicle: Klucel (hydroxypropylcellulose) (HPC).
The mark [3] stands for this setting: dose: 200.0 mg/kg/injection, schedule: Q01DX005 (ip), vehicle: Klucel (hydroxypropylcellulose) (HPC).
Where [4] appears, read: dose: 25.0 mg/kg/injection, schedule: Q01DX005 (ip), vehicle: saline.
Where [5] appears, read: dose: 50.0 mg/kg/injection, schedule: Q01DX005 (ip), vehicle: saline.
Where [6] appears, read: dose: 100.0 mg/kg/injection, schedule: Q01DX005 (ip), vehicle: saline.
The mark [7] stands for this setting: dose: 200.0 mg/kg/injection, schedule: Q01DX005 (ip), vehicle: saline.
[8] abbreviates: dose: 100.0 mg/kg/injection, schedule: Q01DX005 (ip), vehicle: saline with Tween-80.
[9] abbreviates: dose: 200.0 mg/kg/injection, schedule: Q01DX005 (ip), vehicle: saline with Tween-80.
Setting [10] is: dose: 50.0 mg/kg/injection, schedule: Q01DX009 (ip), vehicle: saline with Tween-80.
Where [11] appears, read: dose: 100.0 mg/kg/injection, schedule: Q01DX009 (ip), vehicle: saline with Tween-80.
Setting [12] is: dose: 200.0 mg/kg/injection, schedule: Q01DX009 (ip), vehicle: saline with Tween-80.
The mark [13] stands for this setting: dose: 25.0 mg/kg/injection, schedule: Q01DX009 (ip), vehicle: saline with Tween-80.
Setting [14] is: dose: 50.0 mg/kg/injection, schedule: Q01DX005 (ip), vehicle: saline with Tween-80.
Setting [15] is: dose: 50.0 mg/kg/injection, schedule: Q01DX009 (ip), vehicle: Klucel (hydroxypropylcellulose) (HPC).
The mark [16] stands for this setting: dose: 100.0 mg/kg/injection, schedule: Q01DX009 (ip), vehicle: Klucel (hydroxypropylcellulose) (HPC).
[17] abbreviates: dose: 200.0 mg/kg/injection, schedule: Q01DX009 (ip), vehicle: Klucel (hydroxypropylcellulose) (HPC).

Molecules are shown by their SMILES. Several values for one entry are separate records, joined by “and”; a condition that tells them apart may be missing. Identical values can stand only once. Toxic doses and inconclusive results are not listed.

In the case of `O=C(NNC(=S)NC1OCC(O)C(O)C1O)c1ccco1` (stereo not drawn), the T/C reads like this: under setting [1], 99 % of control and 102 % of control; under setting [2], 100 % of control and 102 % of control; under setting [3], 104 % of control and 106 % of control; (dose: 400.0 mg/kg/injection, schedule: Q01DX005 (ip), vehicle: Klucel (hydroxypropylcellulose) (HPC)) 98 % of control.
As for `CC(C)(C)C(=O)Nc1c(Cl)cc(Br)cc1Br`, the T/C is, setting by setting: (dose: 50.0 mg/kg/injection, schedule: Q01DX009 (ip), vehicle: saline + alcohol) 105 % of control; (dose: 100.0 mg/kg/injection, schedule: Q01DX009 (ip), vehicle: saline + alcohol) 101 % of control; (dose: 200.0 mg/kg/injection, schedule: Q01DX009 (ip), vehicle: saline + alcohol) 100 % of control.
Regarding `Nc1nc2c(nnn2C2OC(COP(=O)(O)OP(=O)(O)O)C(O)C2O)c(=O)[nH]1` (stereo not drawn), the T/C is 110 % of control (dose: 12.5 mg/kg/injection, schedule: Q01DX001 (ip), vehicle: saline); 110 % of control (dose: 25.0 mg/kg/injection, schedule: Q01DX001 (ip), vehicle: saline); 116 % of control (dose: 50.0 mg/kg/injection, schedule: Q01DX001 (ip), vehicle: saline); 117 % of control (dose: 100.0 mg/kg/injection, schedule: Q01DX001 (ip), vehicle: saline).
Take `N#CC1(OC2OC(CO)C(O)C(O)C2O)C=CC(OS(=O)(=O)O)C1` (stereo not drawn): the T/C runs as follows: under setting [4], 103 % of control; under setting [5], 100 % of control; under setting [6], 116 % of control; under setting [7], 97 % of control.
On to `C=CC(O)C(C)C(=O)O` (stereo not drawn), for which the T/C by setting is: (dose: 6.25 mg/kg/injection, schedule: Q01DX005 (ip), vehicle: saline) 93 % of control; (dose: 12.5 mg/kg/injection, schedule: Q01DX005 (ip), vehicle: saline) 95 % of control; under setting [4], 90 % of control; under setting [8], 98 % of control; under setting [9], 98 % of control.
On to `COC(=O)CCCC(NC(=O)c1ccc([N+](=O)[O-])cc1)C(=O)OC` (stereo not drawn), for which the T/C is, setting by setting: under setting [10], 98 % of control; under setting [11], 96 % of control; under setting [12], 96 % of control.
For `O=C(OCC1N=C1c1ccccc1)c1ccc(Br)cc1` (stereo not drawn), the T/C is, setting by setting: (dose: 100.0 mg/kg/injection, schedule: Q01DX001 (ip), vehicle: suspension in saline) 104 % of control; (dose: 200.0 mg/kg/injection, schedule: Q01DX001 (ip), vehicle: suspension in saline) 99 % of control; (dose: 400.0 mg/kg/injection, schedule: Q01DX001 (ip), vehicle: suspension in saline) 104 % of control.
For the compound `c1ccc(C2=NCN3CC23c2ccccc2)cc1` (stereo not drawn), the T/C (dose: 12.5 mg/kg/injection, schedule: Q01DX009 (ip), vehicle: saline with Tween-80) is 98 % of control; the T/C under setting [13] is 98 % of control; the T/C under setting [10] is 99 % of control; the T/C under setting [11] is 95 % of control.
Turning to `O=C(O)c1ccc(N2N=C3C(=CC(=O)c4ccccc43)SCC2=O)cc1`, the T/C reads like this: (dose: 12.5 mg/kg/injection, schedule: Q01DX005 (ip), vehicle: saline + Tween-80 + alcohol) 97 % of control; (dose: 25.0 mg/kg/injection, schedule: Q01DX005 (ip), vehicle: saline + Tween-80 + alcohol) 112 % of control.
As for `CC1(C)C2=CCCC3(OCCO3)C2(C)CCC1O` (stereo not drawn), the T/C reads like this: (dose: 100.0 mg/kg/injection, schedule: Q04DX003 (ip), vehicle: saline with Tween-80) 90 % of control; (dose: 200.0 mg/kg/injection, schedule: Q04DX003 (ip), vehicle: saline with Tween-80) 90 % of control; (dose: 400.0 mg/kg/injection, schedule: Q04DX003 (ip), vehicle: saline with Tween-80) 90 % of control.
Regarding `CCOC(=O)C[N+]12CCC34c5cc(OC)c(OC)cc5N5C(=O)CC6OCC=C(C1)C(CC32)C6C54` (stereo not drawn), the T/C (dose: 1.56 mg/kg/injection, schedule: Q01DX009 (ip), vehicle: saline with Tween-80) was 100 % of control and 108 % of control; the T/C (dose: 3.12 mg/kg/injection, schedule: Q01DX009 (ip), vehicle: saline with Tween-80) was 100 % of control and 108 % of control; the T/C under setting [13] is 105 % of control (2×) and 94 % of control; the T/C under setting [10] is 105 % of control and 111 % of control and 95 % of control; the T/C under setting [11] was 105 % of control and 111 % of control and 98 % of control.
In the case of `CC1=C(C)CN(CCC(=O)O)C(C(N)=O)C1` (stereo not drawn), the T/C runs as follows: under setting [5], 100 % of control; under setting [6], 107 % of control; under setting [7], 100 % of control.
With `Cn1c(C(F)(F)F)nc2nc(Cl)c(Cl)nc21`, the T/C (dose: 25.0 mg/kg/injection, schedule: Q01DX005 (ip), vehicle: saline with Tween-80) is 108 % of control; the T/C under setting [14] is 106 % of control; the T/C under setting [8] is 101 % of control and 106 % of control; the T/C under setting [9] was 99 % of control and 103 % of control; the T/C (dose: 400.0 mg/kg/injection, schedule: Q01DX005 (ip), vehicle: saline with Tween-80) was 101 % of control.
Take `CNc1ccccc1C(=O)NNC(=O)Nc1ccc(SC)cc1`: the T/C reads like this: under setting [10], 103 % of control; under setting [11], 97 % of control; under setting [12], 100 % of control.
As for `O=S(=O)(O)O.[NH-]CC([NH-])c1ccccc1.[Pt+2]` (stereo not drawn), the T/C (dose: 6.25 mg/kg/injection, schedule: Q04DX002 (ip), vehicle: saline with Tween-80) was 184 % of control and the T/C (dose: 12.5 mg/kg/injection, schedule: Q04DX002 (ip), vehicle: saline with Tween-80) is 88 % of control.
As for `CC1(O)CC23CC1CCC2(C)C12CCCC(C)(C(=O)O1)C2CC3O` (stereo not drawn), the T/C is 99 % of control (dose: 12.5 mg/kg/injection, schedule: Q01DX009 (ip), vehicle: Klucel (hydroxypropylcellulose) (HPC)); 100 % of control (dose: 25.0 mg/kg/injection, schedule: Q01DX009 (ip), vehicle: Klucel (hydroxypropylcellulose) (HPC)); 108 % of control under setting [15]; 103 % of control under setting [16]; 100 % of control under setting [17].
`OCCNC(Cc1ccccc1)c1c(O)ccc2ccccc12` (stereo not drawn): the T/C runs as follows: under setting [1], 100 % of control; under setting [2], 94 % of control; under setting [3], 100 % of control.
With `CC(=O)C1C(=O)C(=O)N(c2ccc(C)c(C)c2)C1=O` (stereo not drawn), the T/C is, setting by setting: under setting [14], 101 % of control; under setting [8], 97 % of control; under setting [9], 100 % of control.
For `Nc1c(Br)cc(Br)c2[nH]c(=O)c3ccccc3c12`, the T/C (dose: 60.0 mg/kg/injection, schedule: Q01DX005 (ip), vehicle: saline with Tween-80) was 116 % of control and the T/C (dose: 120.0 mg/kg/injection, schedule: Q01DX005 (ip), vehicle: saline with Tween-80) is 106 % of control.
In the case of `CC1(C)[S][Sn]2[NH]C1C(=O)[O]2` (stereo not drawn), the T/C is 98 % of control under setting [1] and 94 % of control under setting [2].
For `O=[N+]([O-])c1ccc(S(=O)(=O)NCCSSCCNS(=O)(=O)c2ccc([N+](=O)[O-])cc2)cc1`, the T/C was 90 % of control under setting [15], 93 % of control under setting [16] and 90 % of control under setting [17].
With `N#CC(c1ccccc1)C(c1ccccc1)c1cccc2ccccc12` (stereo not drawn), the T/C was 98 % of control (dose: 6.25 mg/kg/injection, schedule: Q01DX009 (ip), vehicle: suspension in saline); 97 % of control (dose: 12.5 mg/kg/injection, schedule: Q01DX009 (ip), vehicle: suspension in saline); 97 % of control (dose: 25.0 mg/kg/injection, schedule: Q01DX009 (ip), vehicle: suspension in saline); 97 % of control (dose: 50.0 mg/kg/injection, schedule: Q01DX009 (ip), vehicle: suspension in saline); 104 % of control (dose: 100.0 mg/kg/injection, schedule: Q04DX002 (ip), vehicle: saline with Tween-80); 101 % of control (dose: 200.0 mg/kg/injection, schedule: Q04DX002 (ip), vehicle: saline with Tween-80). In addition, the T/C (dose: 400.0 mg/kg/injection, schedule: Q04DX002 (ip), vehicle: saline with Tween-80) was 107 % of control.
